Laboratory results from patent publication US6469067B1, “Combinations” (Novartis AG, priority 1999, dated 2002).

System: Dermanyssus gallinae
Assay: In vitro effect on Dermanyssus gallinae
Conditions: single component; for activity in terms of preventing oviposition, component alone: at 0.32 and 10 ppm
Method: For the sake of simplicity, the chicken mite Dermanyssus gallinae is used. This is a good model for determining the effect on ticks.
In vitro Effect on Dermanyssus gallinae
The test is carried out with serial dilutions [avermectin component in concentrations of (32), 10, 3.2, 1.0, 0.32 to 0.0001 ppm; the 1-[4-chloro-3-(3-chlor-5-trifluoromethyl-2-pyridyloxy)phenyl]-3-(2,6-difluorobenzoyl)urea in concentrations of 100, 32, 10, 3.2, 1.0, 0.32 and 0.1 ppm]. For the test, the lowest concentration of one active substance is combined with the lowest concentration of the other active substance, and the limits of activity thus worked out. Ten fully engorged female mites of the genus Dermanyssus gallinae adhered to a plastic adhesive film are brought into contact with 50 μl of an aqueous suspension or emulsion of the test combination in question. After drying, the film is stuck onto a glass disc. This creates a kind of air bubble around each mite, the lower surface of which is formed by the glass disc and the upper surface by a bulging of the adhesive film. This bubble contains sufficient air for the mite to avoid suffocating. After 5 days, the effect of the test substance is evaluated with the aid of a stereomicroscope by assessing the effect on mortality, oviposition, egg quality, hatching rate, pupation rate, and development of protonymphs according to the following 4 criteria:
1) if 9 to 10 mites are dead, this indicates a lethal effect (characterised by M);
3) if 2 or more mites survive and produce eggs, but no larvae hatch from these eggs and no protonymphs develop, this indicates a development-inhibiting effect (H);
4)if 2 or more mites survive and lay the usual number of normal eggs, from which larvae hatch and develop into protonymphs, this indicates no activity (−).
In each test, two basic suspensions/emulsions (without active ingredient) and one suspension/emulsion with only one of each component are also tested in the corresponding concentrations.
The test is repeated three times with the following combinations and the results determined. The final result is given in Tables 1 to 3, whereby in the tables marked with a the combinations from the prior art are listed and in the tables marked with b the results of the combinations according to the invention are listed.

Ivermectin
activity in terms of preventing oviposition, component alone: full activity

CO[C@H]1C[C@H](O[C@H]2[C@H](C)O[C@@H](O[C@@H]3/C(C)=C/C[C@@H]4C[C@@H](C[C@]5(C=C[C@H](C)[C@@H](C6CCCCC6)O5)O4)OC(=O)[C@@H]4C=C(C)[C@@H](O)[C@H]5OC/C(=C\C=C\[C@@H]3C)[C@]54O)C[C@@H]2OC)O[C@@H](C)[C@@H]1O [Doramectin]
activity in terms of preventing oviposition, component alone: full activity

O=C(NC(=O)c1c(F)cccc1F)Nc1ccc(Cl)c(Oc2ncc(C(F)(F)F)cc2Cl)c1 [B, 1-[4-chloro-3-(3-chloro-5-trifluoromethyl-2-pyridyloxy)phenyl]-3-(2,6-difluorobenzoyl)urea]
concentration up to which oviposition is prevented, component alone: 0.01 ppm

O=C(NC(=O)c1c(F)cccc1F)Nc1cc(Cl)c(Oc2ncc(C(F)(F)F)cc2Cl)c(Cl)c1 [A, chlorfluazuron]
activity against Dermanyssus gallinae, component alone (all tested concentrations): no activity at any concentration

CO/N=C1\C[C@]2(C[C@@H]3C[C@@H](C/C=C(\C)C[C@@H](C)/C=C/C=C4\CO[C@@H]5[C@H](O)C(C)=C[C@@H](C(=O)O3)[C@]45O)O2)O[C@H](/C(C)=C/C(C)C)[C@H]1C [Moxidectin]
activity in terms of preventing oviposition, component alone: full activity
